Key:
LTB4 = LTB4 production by NHEKs in the inflammatory state (arachidonic acid + calcium ionophore), ELISA; format: cell-based, human; settings: arachidonic acid 1 μM + calcium ionophore A23187 2 h, compounds 50 μM, NDGA 2 μM, relative to induced control
Experimental: (§1) The study was carried out on Normal Human Epidermal Keratinocytes (NHEKs) (Lonza, CC-2507, origin: foreskin) in monolayer culture in Epilife medium (Invitrogen, M-EPI-500-A) containing the components of the Human Keratinocyte Growth Supplement (HKGS) mixture (Invitrogen, S-001-K) added separately, except hydrocortisone having anti-inflammatory properties.
The induction of LTB4 production having a very fast kinetics, the scheme was adapted. In this case, the inflammatory state was induced for 2 h by applying arachidonic acid (a.a./1 μM/ethanol) combined with calcium ionophore A23187 (2 μM/DMSO). Nordihydroguaiaretic acid (NDGA) was used as reference molecule (2 μM/ethanol).
(§2) The effect of the compounds was studied by applying them to the keratinocyte culture medium 2 h prior to induction of the inflammatory state as well as during induction (2 h for LTB4, 24 h for IL-8, PGE2, IL-6 and TNF-α).
(§3) Each condition was carried out in triplicate cultures and the supernatants were recovered at the end of the various treatments.
(§4) Quantification of the various inflammatory mediators was carried out with specific kits, based on a standard curve, according to the instructions provided by the kits' suppliers, R&D Systems and Cayman Chemical.
(§5) Before induction of the inflammatory state, the NHEKs were treated with the compounds and reference molecules for 2 h. The inflammatory state was then induced according to the conditions described in the methodology section, the culture supernatants were collected, and the various inflammatory mediators were quantified by the ELISA technique.
The effects of the compounds on LTB4 production are shown in FIG. 8 and are expressed as a percentage of the treatment with arachidonic acid (a.a.) combined with calcium ionophore A23187 set at 100%.

[1] = tested on: Normal Human Epidermal Keratinocytes (NHEKs); assay: Microscopic observation of NHEK cell survival 48 h after inflammatory treatment; format: cell-based; settings: for Result at 48 h: cell survival: NHEK cultures 48 h after inflammatory treatment (10 ng/mL PMA + 2 μM calcium ionophore A23187), microscopic observation; for effect on cell survival / cellular protection against inflammation: NHEK cultures 48 h after inflammatory treatment, summary in words
Experimental: The cells, treated and not treated by the compounds to be tested, were observed under an optical microscope 48 h after the following inflammatory treatment: 10 ng/mL PMA/H2O+2 μM calcium ionophore A23187/DMSO.
NHEKs were brought into contact or not with the compounds to be tested. After 2 h, the cells underwent or not an inflammation treatment (10 ng/mL PMA/H2O+2 μM calcium ionophore A23187/DMSO).
The cells were observed under an optical microscope 48 h after the inflammatory treatment.

PGE2 = PGE2 production by NHEKs in the inflammatory state (PMA), ELISA; format: cell-based, human; settings: PMA 10 ng/ml 24 h, compounds 50 μM, indomethacin 10 μg/ml, relative to PMA induced control (100%)
Experimental: as §1
For the quantification of IL-8 and PGE2, the inflammatory state of the NHEKs in culture was induced by treatment with PMA (phorbol myristate acetate/10 ng/ml/H2O) for 24 h. Induction of IL-6 was achieved by treatment with PMA (10 ng/ml/H2O) combined with calcium ionophore A23187 (2 μM/DMSO) in medium containing calcium at a concentration of 0.8 mM. TNF-α secretion was induced by a combination of PMA (10 ng/ml/H2O) and calcium ionophore A23187 (2 μM/DMSO) applied for 24 h (TNF-α) in medium containing 0.06 mM calcium. The reference molecules used are dexamethasone (10 μM/H2O) and indomethacin (10 μg/ml/ethanol).
as §2, §3, §4, §5
The effect of the compounds on PGE2 production is presented in FIG. 5 and is expressed as a percentage of the PMA treatment set at 100%.

TNF-α = TNF-α production by NHEKs in the inflammatory state (PMA + calcium ionophore, 0.06 mM Ca2+), ELISA; format: cell-based, human; settings: PMA + calcium ionophore A23187 24 h, compounds 50 μM, dexamethasone 10 μM, relative to induced control
Experimental: as §1
(§6) For the quantification of IL-8 and PGE2, the inflammatory state of the NHEKs in culture was induced by treatment with PMA (phorbol myristate acetate/10 ng/ml/H2O) for 24 h. Induction of IL-6 was achieved by treatment with PMA (10 ng/ml/H2O) combined with calcium ionophore A23187 (2 μM/DMSO) in medium containing calcium at a concentration of 0.8 mM. […]
as §4
as §5, with “technique. […]” for “technique.”

IL-6 = IL-6 production by NHEKs in the inflammatory state (PMA + calcium ionophore, 0.8 mM Ca2+), ELISA; format: cell-based, human; settings: PMA + calcium ionophore A23187, 0.8 mM Ca2+, compounds 50 μM, dexamethasone 10 μM, relative to induced control
Experimental: as §1
For the quantification of IL-8 and PGE2, the inflammatory state of the NHEKs in culture was induced by treatment with PMA (phorbol myristate acetate/10 ng/ml/H2O) for 24 h. […]
as §4, §5
The effect of the compounds on IL-6 production by NHEKs in the inflammatory state is shown in FIG. 6 and is expressed as a percentage of the treatment with PMA combined with calcium ionophore A23187 (under high-calcium conditions: 0.8 mM Ca2+).

IL-8 = IL-8 production by NHEKs in the inflammatory state (PMA), ELISA; format: cell-based, human; settings: PMA 10 ng/ml 24 h, compounds 50 μM, dexamethasone 10 μM, relative to PMA induced control (100%)
Experimental: as §1, §6, §4
as §5, with “technique. […]” for “technique.”

SMILES	LTB4 production (LTB4)	Result at 48 h: cell survival [1]	effect on cell survival / cellular protection against inflammation [1]	PGE2 production (PGE2)	TNF-α production (TNF-α)	IL-6 production (IL-6)	IL-8 production (IL-8)
CC(Cc1ccc(O)c(O)c1)C(C)Cc1ccc(O)c(O)c1 (stereo not drawn) [NDGA, Nordihydroguaiaretic acid, reference compound]	very highly significantly inhibits						
O=C(/C=C/c1ccc(O)c(O)c1)O[C@@H]1[C@H](O)C[C@@](O)(C(=O)O)C[C@H]1OC(=O)/C=C/c1ccc(O)c(O)c1 [PAT964, 3,4-O-Dicaffeoylquinic]		10% cell survival	little or no effect on cell survival				
O=C(/C=C/c1ccc(O)c(O)c1)O[C@@H]1C[C@](O)(C(=O)O)C[C@@H](OC(=O)/C=C/c2ccc(O)c(O)c2)[C@H]1O [PAT965, 3,5-O-Dicaffeoylquinic]		10% cell survival	little or no effect on cell survival				
O=C(/C=C/c1ccc(O)c(O)c1)O[C@H]1[C@H](O)C[C@](O)(C(=O)O)C[C@H]1OC(=O)/C=C/c1ccc(O)c(O)c1 [PAT967, 4,5-O-Dicaffeoylquinic]		10% cell survival	little or no effect on cell survival	very highly significantly decrease			
CCCCCCCCCCCCNC(=O)[C@]1(O)C[C@@H](OC(=O)/C=C/c2ccc(O)c(O)c2)[C@@H](O)[C@H](OC(=O)/C=C/c2ccc(O)c(O)c2)C1 [PAT1648, (2E,2′E)-((1R,2S,3R,5S)-5-(dodecylcarbamoyl)-2,5-dihydroxycyclohexane-1,3-diyl) bis(3-(3,4-dihydroxyphenyl) acrylate)]	block/decrease, in a very highly significant manner	Confluent culture: 100%	strong cellular protection against inflammation	very highly significantly decrease	most marked effects and are more effective than dexamethasone itself	largest decreases and are more effective than dexamethasone itself	inhibit/reduce IL-8 production to the baseline level
CCCCNC(=O)[C@]1(O)C[C@@H](OC(=O)/C=C/c2ccc(O)c(O)c2)[C@@H](O)[C@H](OC(=O)/C=C/c2ccc(O)c(O)c2)C1 [PAT1658, (2E,2′E)-((1R,2S,3R,5S)-5-(butylcarbamoyl)-2,5-dihydroxycyclohexane-1,3-diyl) bis(3-(3,4-dihydroxyphenyl)acrylate)]	block/decrease, in a very highly significant manner	80% cell survival	strong cellular protection against inflammation	very highly significantly decrease			
C[C@@H]1C[C@H]2[C@@H]3CCC4=CC(=O)C=C[C@]4(C)[C@@]3(F)[C@@H](O)C[C@]2(C)[C@@]1(O)C(=O)CO [dexamethasone]		10% cell survival					
COc1ccc2c(c1)c(CC(=O)O)c(C)n2C(=O)c1ccc(Cl)cc1 [indomethacin, reference compound]				reduces this PGE2 production in the culture supernatants to an almost undetectable level			

Reference: patent publication US10786690B2, “Amide derivatives of polycaffeoylquinic acids, process for producing same and uses thereof” (TEMISIS, priority 2016, dated 2020)
